The term IC50 denotes the concentration that gives 50% inhibition. As a reminder, the solubility is the concentration that dissolves in the medium under given conditions.

Consider 16 compounds from patent US11883387B2, “PqsR inverse agonists” (HELMHOLTZ-ZENTRUM FÜR INFEKTIONSFORSCHUNG GMBH, priority 2018, dated 2024).

Converted amounts (≈) assume the structure as drawn.

In series [1] the test system is production of signal molecules HHQ and PQS. The following applies: inhibitor targeting the enzyme PqsA; read-out: IC50 for reduction of production of signal molecules HHQ and PQS; cited from earlier work.
The subject of series [2] is HEK293 cells. The series can be described thus: Cytotoxicity (MTT) toward HEK293. Format: cell-based. The note with it: Homo sapiens, 48 h, upper class: or at solubility maximum, read-out: IC50-value towards HEK293. How it is done: (§1) To obtain information regarding the toxicity of our compounds, their impact on the viability of human cells was investigated. HepG2 and HEK293 cells (2×10^5 per well) were seeded in 24-well, flat-bottomed culture plates. 24 h after seeding the cells the incubation was started by the addition of compounds in a final DMSO concentration of 1%. The living cell mass was determined 48 h after treatment with compounds by adding 0.1 volumes of 3-(4,5-dimethylthiazol-2-yl)-2,5-diphenyltetrazolium bromide (MTT) solution (5 mg per mL sterile PBS) (Sigma, St. Louis, MO) to the wells. After incubating the cells for 30 min at 37° C. (atmosphere containing 5% CO2), MTT crystals were dissolved in a solution containing 10% SDS and 0.5% acetic acid in DMSO. The optical density (OD) of the samples was determined photometrically at 570 nm in a FLUOstar Omega plate reader (BMG labtech, Ortenberg, Germany). To obtain inhibition values for each sample, their ODs were related to those of DMSO controls.

Series [3] deals with P. aeruginosa pyocyanin production. The series can be described thus: Pyocyanin assay. Format: cell-based, P. aeruginosa PA14. The note with it: Pseudomonas aeruginosa, PA14, 16 h, read-out: IC50-value towards pyocyanin production, PA14 in PPGAS medium, 16 h. In short, it runs like this: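 PA14 in PPGAS medium from OD600 0.02 grown 16 h at 37 °C, 200 rpm, with compounds. Pyocyanin extracted with chloroform, back-extracted into 0.2 M HCl, OD520 normalised to OD600.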

Series [4] has as its target PqsR (Pseudomonas aeruginosa, UniProt Q9I4X0). As to the kind of experiment: E. coli based β-galactosidase reporter gene assay (PqsR inverse agonistic activity). Format: cell-based. Also noted: expressed in transfected cells; host or cells: Escherichia coli DH5α. An outline of the steps: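 E. coli DH5α carrying pEAL08-2 (tac-driven pqsR with pqsA-lacZ) was grown to OD600 0.2 and incubated with 0.001–10 μM compound plus 50 nM PQS for 2.5 h at 37 °C. β-Galactosidase activity was measured by ONPG conversion in permeabilized cells and normalized between the no-PQS and solvent controls. IC50 came from concentration variation.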

Series [5] is described as follows: Kinetic Turbidimetric Aqueous Solubility at room temperature for 5 min. The class given is physicochemical. The following applies: PBS buffer, kinetic from dmso stock, 2% DMSO. In short, it runs like this:
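Compound diluted in PBS across typically 0.4–200 μM (final DMSO 2%), held 5 min at room temperature. Turbidity read as absorbance at 620 nm against vehicle control. Four-parameter sigmoidal fit of normalized absorbances with AUC calculation gives Log S.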

The nature of series [6]: Metabolic stability in mouse liver microsomes (MLM). The following applies: 1 μM compound, 0.5 mg/mL MLM, 1 mM NADPH, 37° C., read-out: half-life (t1/2) towards MLM. The class given is in vitro ADME. How it is done:
For the evaluation of phase I metabolic stability, the compound (1 μM) was incubated with 0.5 mg/mL MLM (Corning) and 1 mM NADPH at 37° C. for 0, 5, 10, 15 and 30 min. The metabolic stability of Verapamil, Diphenhydramine and Benzydamine (1 μM each) were determined in parallel to confirm the enzymatic activity of the MLM. The incubation was stopped by addition of 2 volumes of acetonitrile containing internal standard (1 μM Leucine Enkephaline). Samples were centrifuged (15 min, 3,500 rpm). Concentration of the remaining test compound at the different time points was analyzed by HPLC-MS/MS and used to determine half-life (t1/2).
(In general: Liver microsomes are vesicles of endoplasmic reticulum, rich in cytochrome P450 enzymes.)

Series [7] has as its system HepG2 cells. The series can be described thus: Cytotoxicity (MTT) toward HepG2. Format: cell-based. The note with it: Homo sapiens, 48 h, upper class: or at solubility maximum, read-out: IC50-value towards HepG2. How it is done: as §1
A short description of series [8]: Metabolic stability against human hepatic S9 fraction. Format: in vitro ADME. As to the method: For the evaluation of combined phase I and phase II metabolic stability, the compound (1 μM) was incubated with 1 mg/mL pooled human liver S9 fraction (BD Gentest), 2 mM NADPH regenerating system, 1 mM UDPGA, 10 mM MgCl2 and 0.1 mM PAPS at 37° C. for 0, 5, 15, 30 and 60 min. The metabolic stability of Testosterone (1 μM) and 7-hydroxycoumarin (1 μM) were determined in parallel to confirm the enzymatic activity of the S9 fraction. The incubation was stopped by precipitation of S9 enzymes with 2 volumes of cold acetonitrile containing internal standard (750 nM Diphenhydramine). Samples were stored on ice for 10 min and precipitated protein was removed by centrifugation (10 min, 4° C., 17,000 g). Concentration of the remaining test compound at the different time points was analyzed by LC-MS/MS (TSQ Quantum Access MAX, Thermo Fisher, Dreieich, Germany) and used to determine half-life (t/2).

The nature of series [9]: Turbidimetric Aqueous Solubility at 37° C. for 2 h. The class given is physicochemical. The following applies: aqueous buffer, kinetic from dmso stock, 1% DMSO in buffer, estimated precipitation range. How it is done:
Turbidimetric Aqueous Solubility at 37° C. for 2 h. Test compound was diluted in buffer to give a range of concentrations (typically 1, 3, 10, 30 and 100 μM, final DMSO concentration 1%) and incubated at 37° C. for 2 hr. Absorbance was measured at a wavelength of 620 nm and the solubility was estimated from the concentration of test compound that produces an increase in absorbance above the vehicle control (i.e., 1% DMSO in buffer). An estimated precipitation range (lower and upper bound) was provided as result.

[10] abbreviates: pooled human liver S9 fraction, 1 μM compound, 1 mg/mL pooled human liver S9, phase I and II cofactors, 37° C., read-out: half-life (t1/2) towards human hepatic S9 fraction.

Chain of PqsR (Q9I4X0 whole entry): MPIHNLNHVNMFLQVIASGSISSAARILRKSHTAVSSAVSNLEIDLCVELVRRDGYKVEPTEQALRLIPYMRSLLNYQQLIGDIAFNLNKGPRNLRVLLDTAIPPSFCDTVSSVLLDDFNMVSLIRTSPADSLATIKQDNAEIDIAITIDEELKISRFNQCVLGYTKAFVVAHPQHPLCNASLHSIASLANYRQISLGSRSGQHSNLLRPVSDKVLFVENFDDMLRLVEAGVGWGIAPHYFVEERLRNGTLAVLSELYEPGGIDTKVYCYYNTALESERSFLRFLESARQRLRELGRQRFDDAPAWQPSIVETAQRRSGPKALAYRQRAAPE

In the case of `Nc1cccc(F)c1C(=O)O` [Compound 6FABA], in series [1], the IC50 is about 100 µM.
Turning to `FC(F)(F)Oc1ccc(-n2cc(CNc3ccnc(C(F)(F)F)c3)nn2)cc1` [Compound 012, N-((1-(4-(Trifluoromethoxy)phenyl)-1H-1,2,3-triazol-4-yl)methyl)-2-(trifluoromethyl)pyridin-4-amine], the IC50 in series [2] was 25 to 50 µM; in series [3], 1 to 5 µM; in series [4] it was at most 0.05 µM.
For the compound `FC(F)(F)Oc1ccc(-n2cc(CNc3ccnc(C(F)(F)F)c3)nn2)cc1Cl` [Compound 022, N-((1-(3-Chloro-4-(trifluoromethoxy)phenyl)-1H-1,2,3-triazol-4-yl)methyl)-2-(trifluoromethyl) pyridin-4-amine], the IC50 in series [2] was 25 to 50 µM; in [7], 25 to 50 µM; in [3], 0.251 to 1 µM; in [4], at most 0.05 µM. The same compound gave a solubility at 5 min in series [5] of over 25 µM. In addition, the half-life at 1 μM in [6] is 0.517 to 1 h.
On to `Fc1cc(-n2cc(CNc3ccnc(C(F)(F)F)c3)nn2)ccc1Oc1ccccc1` [Compound 028, N-((1-(3-fluoro-4-phenoxyphenyl)-1H-1,2,3-triazol-4-yl)methyl)-2-(trifluoromethyl)pyridin-4-amine], for which the IC50 in series [2] is 25 to 50 µM; in series [7], 25 to 50 µM; in series [3], 0.251 to 1 µM; in series [4] it was at most 0.05 µM.
On to `FC(F)(F)c1cc(NCc2cnc(-c3ccc(Oc4ccccc4)cc3)s2)ccn1` [Compound 071, N-((2-(4-Phenoxyphenyl)thiazol-5-yl)methyl)-2-(trifluoromethyl)pyridin-4-amine], for which the IC50 in series [2] was 25 to 50 µM; in series [7] it was 25 to 50 µM; in series [3] it was 0.251 to 1 µM; in series [4], at most 0.05 µM. The half-life at 1 μM in [8] (human, s9) is over 1 h.
For `FC(F)(F)c1cc(NCc2cnc(-c3ccc(Cl)cc3)s2)ccn1` [Compound 072, N-((2-(4-Chlorophenyl)thiazol-5-yl)methyl)-2-(trifluoromethyl)pyridin-4-amine], in series [5], the solubility at 5 min is over 25 µM. For the same compound, the half-life at 1 μM in series [6] and in series [8] (setting [10]) was over 1 h each time. Further, the IC50 in series [7] lay within 25 to 50 µM; in series [3], 0.251 to 1 µM; in series [4], 0.051 to 0.25 µM.
In the case of `N#Cc1cc(NCc2cnc(-c3ccc(Oc4ccccc4)cc3)s2)ccn1` [Compound 076, 4-(((2-(4-Phenoxyphenyl)thiazol-5-yl)methyl)amino)picolinonitrile], the half-life at 1 μM in series [6] and in series [8] (setting [10]) was over 1 h in each case. The IC50 is at most 0.25 µM in [3] and at most 0.05 µM in series [4].
For `COc1ccc(-c2ncc(CNc3ccnc(C#N)c3)s2)cc1Cl` [Compound 077, 4-(((2-(3-Chloro-4-methoxyphenyl)thiazol-5-yl)methyl)amino)picolinonitrile], the solubility at 5 min in series [5] is over 10 µM. The IC50 in [7] is 25 to 50 µM; in [3], at most 0.25 µM; in [4], at most 0.05 µM.
Turning to `FC(F)(F)c1cc(NCc2csc(-c3ccc(Oc4ccccc4)cc3)n2)ccn1` [Compound 080, N-((2-(4-Phenoxyphenyl)thiazol-4-yl)methyl)-2-(trifluoromethyl)pyridin-4-amine], the IC50 is 25 to 50 µM in [2], 25 to 50 µM in series [7], 1 to 5 µM in [3] and at most 0.05 µM in series [4]. This compound returned a solubility at 5 min in series [5] of over 10 µM.
Regarding `FC(F)(F)c1cc(NCc2ccc(-c3ccc(Oc4ccccc4)cc3)cn2)ccn1` [Compound 097, N-((5-(4-phenoxyphenyl)pyridin-2-yl)methyl)-2-(trifluoromethyl)pyridin-4-amine], the IC50 in series [2] lay in the range of 25 to 50 µM; in series [7], 25 to 50 µM; in series [3], 0.251 to 1 µM; in series [4] it was 0.051 to 0.25 µM. In [5], this compound came in with a solubility at 5 min of over 10 µM.
`CC(C)Oc1ccc(-c2ncc(CNc3ccnc(C(F)(F)F)c3)cn2)cc1Cl` [Compound 108, N-((2-(3-Chloro-4-isopropoxyphenyl)pyrimidin-5-yl)methyl)-2-(trifluoromethyl)pyridin-4-amine] had a solubility at 5 min in series [5] (aqueous buffer) of over 25 µM. The solubility at 2 h in series [9] is 10 to 30 µM (≈ 4.23 to 12.7 µg/mL). Further, the values for the IC50 in [3] and in [4] were at most 0.25 µM and at most 0.05 µM, respectively.
Take `Fc1cc2nc(CSc3ccnc(C(F)(F)F)c3)[nH]c2cc1F` [Compound 122, 5,6-Difluoro-2-(((2-(trifluoromethyl)pyridin-4-yl)thio)methyl)-1H-benzo[d]imidazole]: the IC50 in series [2] is at least 50 µM; in series [7], at least 50 µM; in series [4], 0.251 to 1 µM. The solubility at 5 min in [5] is at least 100 µM.
For `FC(F)(F)c1cc(SCc2nc3cc(Oc4ccccc4)ccc3[nH]2)ccn1` [Compound 127, 5-Phenoxy-2-(((2-(trifluoromethyl)pyridin-4-yl)thio)methyl)-1H-benzo[d]imidazole], the IC50 in [2] was 25 to 50 µM; in series [7] it was 25 to 50 µM; in series [3] it was at most 0.25 µM; in series [4], at most 0.05 µM. Also, the solubility at 5 min in [5] is over 10 µM.
For `Cc1cccc(Oc2ccc3[nH]c(CSc4cc(N)nc(C(F)(F)F)n4)nc3c2)c1` [Compound 128, 6-(((5-(m-Tolyloxy)-1H-benzo[d]imidazol-2-yl)methyl)thio)-2-(trifluoromethyl)pyrimidin-4-amine], the IC50 was 25 to 50 µM in series [2], 25 to 50 µM in series [7] and at most 0.05 µM in series [4]. For the same compound, the solubility at 5 min in [5] was over 25 µM.
As to `Nc1cc(SCc2nc3cc(Oc4cccc(F)c4)ccc3[nH]2)nc(C(F)(F)F)n1` [Compound 129, 6-(((5-(3-Fluorophenoxy)-1H-benzo[d]imidazol-2-yl)methyl)thio)-2-(trifluoromethyl)pyrimidin-4-amine], the IC50 was 25 to 50 µM in series [2], 25 to 50 µM in series [7] and at most 0.05 µM in series [4]. In addition, in series [6], the half-life at 1 μM is 0.517 to 1 h.
In the case of `FC(F)(F)c1cc(SCc2nc3ccc(Oc4ccccc4)cc3o2)ccn1` [Compound 132, 6-Phenoxy-2-(((2-(trifluoromethyl)pyridin-4-yl)thio)methyl)benzo[d]oxazole], the IC50 in [2] was in the range of 25 to 50 µM; in series [3] it was 0.251 to 1 µM; in series [4], 0.051 to 0.25 µM. In addition, in series [9], the solubility at 2 h was 10 to 30 µM (≈ 4.02 to 12.1 µg/mL). Further, the half-life at 1 μM in [8] (setting [10]) is over 1 h.
